From ChEMBL document CHEMBL1201862, “PubChem BioAssay data set” (2004)
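These data come from cells grown in 96-well plates and exposed to compound for 48 hours at five concentrations. GI50 marks 50% less growth.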 Calls of active or inactive are those of the source. No stated cut-off is given here; in the data, active = GI50 up to about 1.1 µM and inactive = higher.

Key:
Assay in all cases: NCI-60 cell line screen, 48 h
HCT-15 = tested on: HCT-15
NCI-H23 = tested on: NCI-H23
M14 = tested on: M14
SK-MEL-5 = tested on: SK-MEL-5
SNB-19 = tested on: SNB-19
HCT-116 = tested on: HCT-116
CCRF-CEM = tested on: CCRF-CEM
A549 = tested on: A549
HCC 2998 = tested on: HCC 2998
UACC-62 = tested on: UACC-62
NCI-H226 = tested on: NCI-H226
MOLT-4 = tested on: MOLT-4
LOX IMVI = tested on: LOX IMVI
CAKI-1 = tested on: CAKI-1
K562 = tested on: K562
OVCAR-5 = tested on: OVCAR-5
KM12 = tested on: KM12

## CCN1CCC(O)(c2ccc(Cl)c(Cl)c2)C(C(=O)c2ccc(Cl)c(Cl)c2)C1 (stereo unspecified)
HCT-15
  GI50: 18.8 µM
NCI-H23
  GI50: 19.7 µM (inactive)
M14
  GI50: 16.7 µM (inactive)
SK-MEL-5
  GI50: 16.9 µM (inactive)
SNB-19
  GI50: 19.7 µM (inactive)
HCT-116
  GI50: 18.5 µM (inactive)
CCRF-CEM
  GI50: 17.1 µM (inactive)
A549
  GI50: 19.4 µM (inactive)
HCC 2998
  GI50: 19.9 µM (inactive)
UACC-62
  GI50: 17 µM (inactive)
NCI-H226
  GI50: 21.4 µM (inactive)
MOLT-4
  GI50: 15.1 µM (inactive)
LOX IMVI
  GI50: 17.8 µM (inactive)
CAKI-1
  GI50: 18.3 µM (inactive)
K562
  GI50: 18 µM (inactive)
OVCAR-5
  GI50: 19.2 µM (inactive)

## Nn1c(S)nnc1N/N=C1/C(=O)Nc2ccccc21
HCT-15
  GI50: 57.7 µM
NCI-H23
  GI50: 16.9 µM (inactive)
M14
  GI50: 62.1 µM (inactive)
SNB-19
  GI50: 55.2 µM (inactive)
HCT-116
  GI50: 53.1 µM (inactive)
CCRF-CEM
  GI50: 47.3 µM (inactive)
A549
  GI50: 83.2 µM (inactive)
HCC 2998
  GI50: > 100 µM (inactive)
UACC-62
  GI50: 71.8 µM (inactive)
NCI-H226
  GI50: 42.1 µM (inactive)
MOLT-4
  GI50: 30.7 µM (inactive)
LOX IMVI
  GI50: 35.4 µM (inactive)
CAKI-1
  GI50: 52.6 µM (inactive)
KM12
  GI50: 92.3 µM (inactive)
K562
  GI50: 59 µM (inactive)
OVCAR-5
  GI50: > 100 µM (inactive)

## C=CCC(O)c1cc(OC)ccc1OC (stereo unspecified)
HCT-15
  GI50: > 100 µM
M14
  GI50: > 100 µM (inactive)
SK-MEL-5
  GI50: > 100 µM (inactive)
SNB-19
  GI50: > 100 µM (inactive)
CCRF-CEM
  GI50: > 100 µM (inactive)
A549
  GI50: > 100 µM (inactive)
HCC 2998
  GI50: > 100 µM (inactive)
UACC-62
  GI50: > 100 µM (inactive)
NCI-H226
  GI50: > 100 µM (inactive)
MOLT-4
  GI50: > 10 µM (inactive)
LOX IMVI
  GI50: > 100 µM (inactive)
CAKI-1
  GI50: > 100 µM (inactive)
KM12
  GI50: > 100 µM (inactive)
K562
  GI50: > 100 µM (inactive)
OVCAR-5
  GI50: > 100 µM (inactive)

## COc1cc(C(=O)C/C(CCC(=O)Nc2ccc(Cl)cc2Cl)=N/Nc2nnc(C)n2N)ccc1O
HCT-15
  GI50: > 100 µM
NCI-H23
  GI50: > 100 µM (inactive)
M14
  GI50: > 100 µM (inactive)
SK-MEL-5
  GI50: > 100 µM (inactive)
SNB-19
  GI50: > 100 µM (inactive)
HCT-116
  GI50: > 100 µM (inactive)
CCRF-CEM
  GI50: > 100 µM (inactive)
A549
  GI50: > 100 µM (inactive)
HCC 2998
  GI50: > 100 µM (inactive)
UACC-62
  GI50: > 100 µM (inactive)
NCI-H226
  GI50: > 100 µM (inactive)
LOX IMVI
  GI50: > 100 µM (inactive)
CAKI-1
  GI50: 45.9 µM (inactive)
KM12
  GI50: > 100 µM (inactive)
K562
  GI50: > 10 µM (inactive)
OVCAR-5
  GI50: > 100 µM (inactive)

## C=CC/N=C1\NC(=O)C(CC(=O)Nc2ccc(C)cc2)S1 (stereo unspecified)
HCT-15
  GI50: > 100 µM
NCI-H23
  GI50: > 100 µM (inactive)
M14
  GI50: > 100 µM (inactive)
SK-MEL-5
  GI50: > 100 µM (inactive)
SNB-19
  GI50: > 100 µM (inactive)
CCRF-CEM
  GI50: > 100 µM (inactive)
A549
  GI50: > 100 µM (inactive)
HCC 2998
  GI50: > 100 µM (inactive)
UACC-62
  GI50: > 100 µM (inactive)
NCI-H226
  GI50: > 100 µM (inactive)
MOLT-4
  GI50: > 100 µM (inactive)
LOX IMVI
  GI50: > 100 µM (inactive)
CAKI-1
  GI50: > 100 µM (inactive)
KM12
  GI50: > 100 µM (inactive)
K562
  GI50: > 100 µM (inactive)
OVCAR-5
  GI50: > 100 µM (inactive)

## COc1cc2c([C@@H](OC(=O)c3ccccc3)c3ccc4c(c3)OCO4)nccc2c(OC)c1OC
HCT-15
  GI50: 37.6 µM
NCI-H23
  GI50: 23.7 µM (inactive)
M14
  GI50: 53.6 µM (inactive)
SK-MEL-5
  GI50: 17.9 µM (inactive)
SNB-19
  GI50: 93.8 µM (inactive)
HCT-116
  GI50: 26.9 µM (inactive)
CCRF-CEM
  GI50: 28.6 µM (inactive)
A549
  GI50: 17.3 µM (inactive)
HCC 2998
  GI50: 92 µM (inactive)
UACC-62
  GI50: 14.7 µM (inactive)
NCI-H226
  GI50: 23.5 µM (inactive)
MOLT-4
  GI50: 13.5 µM (inactive)
LOX IMVI
  GI50: 29.2 µM (inactive)
CAKI-1
  GI50: 9.31 µM (inactive)
K562
  GI50: 24.9 µM (inactive)
OVCAR-5
  GI50: 76.9 µM (inactive)

## CCOc1ccc(/C=C2/C(=O)N=C(N)N=C2N)cc1OCC
HCT-15
  GI50: > 100 µM
NCI-H23
  GI50: > 100 µM (inactive)
M14
  GI50: > 100 µM (inactive)
SK-MEL-5
  GI50: > 100 µM (inactive)
SNB-19
  GI50: > 100 µM (inactive)
HCT-116
  GI50: > 100 µM (inactive)
CCRF-CEM
  GI50: > 100 µM (inactive)
A549
  GI50: > 100 µM (inactive)
HCC 2998
  GI50: > 100 µM (inactive)
UACC-62
  GI50: > 100 µM (inactive)
NCI-H226
  GI50: > 100 µM (inactive)
MOLT-4
  GI50: > 100 µM (inactive)
LOX IMVI
  GI50: > 100 µM (inactive)
CAKI-1
  GI50: > 100 µM (inactive)
KM12
  GI50: > 100 µM (inactive)
K562
  GI50: > 100 µM (inactive)
OVCAR-5
  GI50: > 100 µM (inactive)

## CC12CCC([C@H](N3CCOCC3)/C1=N\OCCN1CCCC1)C2(C)C (stereo partly specified)
HCT-15
  GI50: > 100 µM
NCI-H23
  GI50: > 100 µM (inactive)
M14
  GI50: > 100 µM (inactive)
SK-MEL-5
  GI50: > 100 µM (inactive)
SNB-19
  GI50: > 100 µM (inactive)
HCT-116
  GI50: > 100 µM (inactive)
CCRF-CEM
  GI50: > 100 µM (inactive)
A549
  GI50: > 100 µM (inactive)
HCC 2998
  GI50: > 100 µM (inactive)
UACC-62
  GI50: > 100 µM (inactive)
NCI-H226
  GI50: > 100 µM (inactive)
MOLT-4
  GI50: > 100 µM (inactive)
LOX IMVI
  GI50: > 100 µM (inactive)
CAKI-1
  GI50: > 100 µM (inactive)
KM12
  GI50: > 100 µM (inactive)
K562
  GI50: > 100 µM (inactive)
OVCAR-5
  GI50: > 100 µM (inactive)

## CN(C)P(=O)(/C(N)=N/Nc1ccc([N+](=O)[O-])cc1)N(C)C
HCT-15
  GI50: > 100 µM
NCI-H23
  GI50: 62.4 µM (inactive)
M14
  GI50: > 100 µM (inactive)
SK-MEL-5
  GI50: > 100 µM (inactive)
SNB-19
  GI50: > 100 µM (inactive)
HCT-116
  GI50: > 100 µM (inactive)
CCRF-CEM
  GI50: > 100 µM (inactive)
A549
  GI50: > 100 µM (inactive)
HCC 2998
  GI50: > 100 µM (inactive)
UACC-62
  GI50: > 100 µM (inactive)
NCI-H226
  GI50: > 100 µM (inactive)
MOLT-4
  GI50: > 100 µM (inactive)
LOX IMVI
  GI50: > 100 µM (inactive)
CAKI-1
  GI50: > 100 µM (inactive)
KM12
  GI50: > 100 µM (inactive)
K562
  GI50: > 100 µM (inactive)
OVCAR-5
  GI50: > 100 µM (inactive)
